Laboratory results from patent US9914760B2, “Methods of identifying, isolating and using odorant and aroma receptors” (Firmenich SA, priority 2013, dated 2018).

Target: Olfr743 (Mus musculus, UniProt L7N1Y2)
Experiment: cell-based cAMP assay (HTRF), HEK293T co-transfected with Gαolf
Settings: 300 μM 2-acetonaphthone
From the text: The activity of candidate mouse receptors Olfr740 (SEQ ID NO: 1 and SEQ ID NO: 2), Olfr743 (SEQ ID NO: 5 and SEQ ID NO: 6), and Olfr746 (SEQ ID NO: 37 and SEQ ID NO: 38) to both indole and skatole malodors were confirmed in cell-based cAMP assays. In FIGS. 5A and 5B, FLAG Rho-tagged (SEQ ID 18) Olfr743 (SEQ ID NO: 6) and Olfr740 (SEQ ID NO: 2) cDNA sequences were co-transfected with Gαolf (SEQ ID NO: 21) and exposed to increasing concentrations of indole (left) or skatole (right). FIGS. 5C and 5D are repeat experiments showing similar activity of Olfr740 (SEQ ID NO: 2) with Olfr743 (SEQ ID NO: 6) with indole and skatole. In FIG. 5E, the FLAG Rho-tagged (SEQ ID 18) Olfr746 (SEQ ID NO: 38) cDNA sequence was co-transfected with Gαolf (SEQ ID NO: 21) and exposed to increasing concentrations of indole or skatole. Odorant-induced activity was detected by measuring cAMP levels in the cytosol using the HTRF approach (CisBio kit). […] Co-transfection of HEK cells with Gαolf (SEQ ID NO: 21) alone (no receptor) were used as controls for non-specific activity (control). Activity is defined as the baseline corrected HTRF ratios normalized to the highest signal in the experiment. […] All three receptors show specific dose dependent activity to the malodor compounds and, as such, validate the process for identifying receptors for these compounds. Mouse receptors Olfr740 (SEQ ID NO: 1 and SEQ ID NO: 2) and Olfr743 (SEQ ID NO: 5 and SEQ ID NO: 6) were identified from isolated olfactory neurons that responded to both indole and skatole. Mouse receptor Olfr746 (SEQ ID NO: 37 and SEQ ID NO: 38) was identified in silico by database mining using Olfr740 (SEQ ID NO: 2) and Olfr743 (SEQ ID NO: 6) as query sequences. The receptors are modified at their N-terminus with the FLAG tag and the first 20 amino acids of the bovine rhodopsin receptor (SEQ ID 18), transiently expressed in HEK 293T cells, and stimulated separately with indole and skatole to confirm their identity as bona fide indole/skatole receptors. Co-expression of the human G alpha subunit Gαolf (SEQ ID NO: 21) activates the Gs transduction pathway that leads to an internal cAMP increase upon binding to the appropriate ligand.
Once identified using the procedure outlined herein, the resulting malodor receptor cell lines can be used to screen chemical libraries for compounds that modulate their activity and possibly human perception. This experiment was performed under the same conditions as in Example 4. Cells transfected with Rho-tagged (SEQ ID NO: 18) Olfr743 (SEQ ID NO: 6) were exposed to increasing concentrations of indole in the presence or absence of 300 μM 2-actetonaphthone. […] In the presence of the antagonist compound, a rightward shift of in the dose-response curve is observed resulting in a 4 fold increase in the EC50 to indole. Activity is defined as the baseline corrected HTRF ratios normalized to the highest signal in the experiment.

Olfr743, sequence (P38405 2-381): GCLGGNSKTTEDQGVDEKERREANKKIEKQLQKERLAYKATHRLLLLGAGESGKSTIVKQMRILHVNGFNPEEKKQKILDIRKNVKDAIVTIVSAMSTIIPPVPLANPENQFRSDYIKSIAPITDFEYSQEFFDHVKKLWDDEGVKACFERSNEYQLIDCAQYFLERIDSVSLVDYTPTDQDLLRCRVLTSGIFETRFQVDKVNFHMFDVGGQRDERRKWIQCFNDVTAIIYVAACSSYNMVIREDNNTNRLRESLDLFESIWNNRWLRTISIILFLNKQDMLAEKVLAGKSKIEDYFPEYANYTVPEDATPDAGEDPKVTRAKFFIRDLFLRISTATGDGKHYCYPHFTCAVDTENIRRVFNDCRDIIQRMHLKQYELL
Olfr743, sequence (L7N1Y2 entry or part of it): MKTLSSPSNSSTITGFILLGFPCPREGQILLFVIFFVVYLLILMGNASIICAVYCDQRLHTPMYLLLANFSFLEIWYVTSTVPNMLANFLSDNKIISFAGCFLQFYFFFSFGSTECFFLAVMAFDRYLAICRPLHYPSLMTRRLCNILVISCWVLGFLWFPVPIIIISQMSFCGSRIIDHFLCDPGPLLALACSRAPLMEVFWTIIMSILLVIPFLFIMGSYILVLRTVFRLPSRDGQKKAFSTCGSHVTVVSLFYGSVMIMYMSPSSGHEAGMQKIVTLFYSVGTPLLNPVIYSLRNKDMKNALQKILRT

Structure (SMILES): CC(=O)c1ccc2ccccc2c1 [2-acetonaphthone]
- inhibition of Olfr743 activity to indole: inhibits the activity
- increase in the EC50 to indole (rightward shift of dose-response curve): 4 fold
